The values below come from article PMC10184511 (Neuro-Oncology Advances, 2023).

The conditions of data set [1]: metastatic melanoma patients, 200 mg/m^2 TMZ; cited from earlier work.
Data set [2] can be described thus: In vitro 3D BBB permeability assay. To be noted: human, pH 7. The data set is classed as in vitro ADME.
For data set [3] the following is noted: description in words; cited from earlier work.
The subject of data set [4] is p53-p21 axis in Mel-7 cells. Kind of data set: Western blotting of p53-p21 axis, cell-cycle proteins and Cyt c, Mel-7. Type of data set: cell-based, human. To be noted: 24 hours.
The test system of data set [5] is BBB. To be noted: previous report; cited from earlier work.

In the case of `Cn1nnc2c(C(N)=O)ncn2c1=O` [TMZ, temozolomide], the Cmax in data set [1] is recorded as ~ 20 μg/mL. In addition, the Papp A→B at 30 min, 100 μM in data set [2] stood at 2.67 ×10⁻⁶ cm/s. Besides, in data set [3], the lipophilicity result is “lipophilic”. For the same compound, the “Cyt c release into the cytoplasm” value in data set [4] (single agent, cytosolic fraction) was “increased”. Also, in data set [4] (single-agent treatment, whole-cell lysate), the p53 levels result is recorded as “substantially increased”. Besides, the BBB permeability in data set [5] was 2.7 ×10⁻⁶ cm/s.
